Results reported in a melting point compilation (Tetko et al.; mined from patent text by program, amines drawn as free bases though some values may be those of a salt).

Row | melting point [°C] | Structure (SMILES)
1 | 136 to 138 | CCCCc1cc(C(O)=S)cc(N)c1Cc1ccccc1
2 | 36 to 38 | CCCCCCCCCCCCCCCCC(CO)OC (stereo unspecified)
3 | 82 to 83 | Cc1nn(C2(F)C=CC([N+](=O)[O-])=CC2)c(=O)n1C(F)F (stereo unspecified)
4 | 275 | O=C(c1ccccc1)N1Cc2[nH]c3ccccc3c(=O)c2C1
5 | 113 to 116 | O=[N+]([O-])c1ccc(Cl)c(C=NNc2c(Cl)cc(Cl)cc2Cl)c1
6 | 228 to 230 | CCc1cccc(CC)c1NC(=O)CC1c2ccccc2Oc2ccccc21
7 | 145 to 146 | O=S1(=O)c2ccccc2Oc2ccccc21
8 | 96 to 98 | COc1ccc(C[C@@H](C(=O)O)[C@@H](O)c2ccc(F)cc2)cc1 (racemic)
9 | 96 to 99 | CC(C)=CCOC(C)C1CCC2=C3C=CC4C(C)(C)C(OC(=O)CCC(=O)O)CCC4(C)C3CCC21C (stereo unspecified)
10 | 143 | COC(=O)C1=C(C)NC(C)=C(C(=O)OCC2(C)OCCO2)C1c1cccc([N+](=O)[O-])c1 (stereo unspecified)
11 | 116 to 117 | CC1Cc2cc3c(cc2C(c2ccc(Cl)cc2)=NN1c1nccs1)OCO3 (stereo unspecified)
12 | 130 to 132 | O=C(Nc1ccccc1)N(Cc1ccc(Br)cc1)C1CCCC1
13 | 353 to 355 | NC(=O)c1nc(-c2cccc(O)c2)nc2c1[nH]c(=O)n2[C@@H]1CCOC1
14 | 249 | O=C1c2ccccc2C(=O)c2sc(-c3ccccc3)nc21
15 | 180 to 183 | CS(=O)(=O)n1c(C#N)nc2cc3c(cc21)OC(F)(F)C(F)(F)O3
16 | 45 to 46 | COC(=O)Nc1ccccc1
17 | 318 to 320 | O=c1cc(-c2ccncc2)nc2n1CCN2
18 | 257 | COc1cc(C(=O)c2ncc3ccc(NC(C)=O)cn23)ccc1[N+](=O)[O-]
19 | 118 | CC1=C(CCO)c2cc(F)ccc2/C1=C\c1ccc(S(C)(=O)=O)cc1
20 | 168 to 169 | Fc1ccc(CN2CCC(Nc3ccc(C(F)(F)F)nn3)CC2)cc1F
21 | 154 to 156 | CC1CC(=O)NN=C1c1ccc(NCCCN)c([N+](=O)[O-])c1 (stereo unspecified)
22 | 89 to 90 | COCc1cccc(COC)c1SSc1c(COC)cccc1COC
23 | 199 to 201 | N/C(=C1/Sc2ccc(Cl)cc2C1=O)c1ccccc1Cl
24 | 229 | Cc1cc2cc(CN3CCC(C(=O)N(C)C)CC3)cnc2cc1NC(=O)c1ccc(-c2ccc(F)cc2)cc1
25 | 141 | CC(C)(C)c1ccc(/C=C/C(=O)Nc2ccccc2)cc1

Row | melting point [°C] | Structure (SMILES)
26 | 112 to 114 | COCCOc1c(S(C)(=O)=O)ccc(C(=O)c2cnn(C)c2O)c1C
27 | 230 to 231 | Nc1ncccc1-c1nc2cc(C(F)(F)F)cnc2n1-c1ccc(CNC(=O)c2cccc(F)c2)cc1
28 | 163 to 166 | C#Cc1cccc(Nc2ncnc3cnc(NC(=O)/C=C/CN(C)C)cc23)c1
29 | 83 to 84 | O=S(=O)(Nc1ccc(Cl)cc1Sc1ccc(Cl)cc1)C(F)(F)F
30 | 148 to 150 | C=CCn1c(-c2cccc(Cl)c2[N+](=O)[O-])nc2ccccc21
31 | 170 to 172 | CCC1c2[nH]c3ccccc3c2CC(CO)N1C(=S)SC (stereo unspecified)
32 | 180 to 182 | OC(CSc1nc[nH]n1)(Cn1cncn1)c1ccc(Cl)cc1Cl (stereo unspecified)
33 | 231 to 233 | CCCCc1nc2c(N)nc3ccccc3c2n1CC(C)(C)C(N)=O
34 | 76 to 78 | CCCCCCCCCCCCCCCCCCOc1cc(OCCOCCOCCOCC)cc(N(CC(=O)O)CC(=O)O)c1
35 | 198 | CCN(CC)c1ccc(CN2C(=O)C(C)(c3ccccc3Cl)c3cc(Cl)ccc32)c(OC)c1 (stereo unspecified)
36 | 227 to 230 | CCc1c(C)[nH]c2cc(OCCN(C)C)c(Cl)cc2c1=O
37 | 159 to 161 | N#CC=C1CCN(c2ccc(N3C[C@H](CNC(=O)C(Cl)Cl)OC3=O)cc2F)CC1
38 | 236 to 238 | CN1CCN(c2cc(F)cc3c(=O)cc(C(=O)Nc4ccc(N5CCN(C(=O)O)CC5)cc4)oc23)CC1
39 | 134 to 135 | Fc1cccc2c(NCCc3nc(-c4ccccc4)cs3)ccnc12
40 | 43 to 45 | O=C1C(c2cccc(Br)c2)n2cncc2CN1Cc1ccsc1 (stereo unspecified)
41 | 87 to 89 | CCCS(=O)(=O)c1ccc2c(c1)C(=O)C(Br)C2 (stereo unspecified)
42 | 124 to 126 | Cc1cn(C(C)(C)C(=O)N(C)C)nc1-c1ccccc1C#N
43 | 79 to 81 | CC1(C)CC(SCc2c(C(F)(F)F)nn(C(C)(C)C)c2Cl)=NO1
44 | 62 to 64 | CCCCCCCCCCc1nnn(C(C(=O)O)c2ccccc2)n1 (stereo unspecified)
45 | 196 to 200 | Cn1ncnc1COc1nn2c(-c3ccccc3F)nncc2c1-c1cccc(N)c1
46 | 108 | CC1C(=O)N(c2ccccc2)C(=S)N1c1ccc(Oc2ccccc2Cl)cc1 (stereo unspecified)
47 | 132 to 133 | CC(=O)CCC(=O)c1ccc(S(C)(=O)=O)cc1
48 | 158 to 159 | Cc1c(C)c2c(c(C)c1O)CCC(COc1ccc(CC3SC(=O)NC3=O)cc1)O2 (stereo unspecified)
49 | 72 to 75 | CCOC(=O)C(C)(OC)C(=O)Nc1cc(Cl)cc(Cl)c1 (stereo unspecified)
50 | 139 to 140 | CCc1cn(C2CC(F)C(CO)O2)c(=O)[nH]c1=S (stereo unspecified)

Row | melting point [°C] | Structure (SMILES)
51 | 78 to 80 | CCCCCOC(=O)Cc1nc(-c2ccc(F)cc2)oc1-c1ccsc1
52 | 179 to 180 | CCCN(CCC)c1nsc(NC(=O)NC)c1C#N
53 | 126 to 128 | O=Cc1cccc2cc3ccccc3cc12
54 | 69 to 71 | OCc1c[nH]c(Sc2ccccc2)c1
55 | 78 to 82 | Cc1noc(NS(=O)(=O)c2cccc(-c3ccccc3)c2)c1Br
56 | 201 to 202 | NC1CCN(C(=O)c2ccc(-c3[nH]nc4c3C(=O)c3c(NC(=O)NN5CCOCC5)cccc3-4)s2)C1 (stereo unspecified)
57 | 110 to 111 | Nc1cccc(N)c1Oc1ccccc1
58 | 290 | Cc1ccc2c(c1)C(=O)c1ccc(C#N)cc1S2(=O)=O
59 | 150 to 153 | Nc1ccc(CCCn2cnnc2)cc1
60 | 151 to 155 | O=C(Nc1ccc(N2CCOCC2)cc1)c1ccccc1C(c1ccc(O)cc1)c1ccc(O)cc1
61 | 39.5 to 43 | Clc1cnc(Br)c(Br)c1
62 | 167 to 169 | CC(=O)OC1CSC(Oc2cccc(-c3c(C)noc3C)c2)C(OC(C)=O)C1OC(C)=O (stereo unspecified)
63 | 172 to 174 | COC(=O)C1=C(C)N=C(OC)N(C(=O)Oc2ccc([N+](=O)[O-])cc2)C1c1ccc(F)c(F)c1 (stereo unspecified)
64 | 149 | CN1C(=O)Cc2cc(Br)cnc21
65 | 136 to 138 | O=C1Nc2ccccc2N(C(=O)N2CCOC(CCN3CCCCC3)C2)c2ncccc21 (stereo unspecified)
66 | 139 to 141 | CCOC(=O)C1=C(C)NC(CF)=C(C(=O)OCC)C1c1cccc([N+](=O)[O-])c1 (stereo unspecified)
67 | 269 to 271 | CC(=O)NC[C@H]1CN(c2ccc(-n3cnnc3S)c(F)c2)C(=O)O1
68 | 100 to 101 | COc1ccc(CCNC(=O)OC(C)(C)C)cc1O
69 | 236 | O=C(N[C@H]1CC[C@H](CCN2CCN(c3nccc4c3OCC4)CC2)CC1)c1ccc(-n2cccc2)cc1
70 | 188 | Clc1cc2c(cc1Cn1c(C3OCCO3)nc(Br)c1Br)OCO2
71 | 190 to 192 | Cc1cc(C(=O)N(C)C)ccc1-c1ccc(C(=O)O)cc1
72 | 189 to 191 | CCOC(=O)n1c(C(=O)c2cccc(Cl)c2)c(NC(=O)CC)c2ccc(Cl)cc21
73 | 95 to 98 | CCOc1noc2c1CN(C(=O)OC)CC2
74 | 116 | COC(=O)c1cccc(F)c1S(C)(=O)=O
75 | 170 to 173 | Cc1ccc(C(CCCOC(=O)Nc2ccccc2)=NNC(N)=S)cc1

Row | melting point [°C] | Structure (SMILES)
76 | 118 to 120 | O=C(O)C(Sc1nc2c(s1)CCCC2)c1ccccc1 (stereo unspecified)
77 | 170 to 174 | O=C1NCCC[C@@H]1NS(=O)(=O)c1cc(F)cc(F)c1
78 | 134 to 136 | O=C(NCc1ccc(C(=O)C(F)(F)F)cc1)c1cccnc1Oc1cccnc1
79 | 172 to 173 | CC(C)(C)C(=O)Nc1ccc(F)cc1C1(O)CCN(C/C=C/c2ccc(Cl)cc2)CC1
80 | 124 | OCCSc1nc(-c2ccccc2)c2cc(Cl)ccc2n1
81 | 90 | CN(CC(=O)OCCCCNc1cccc2c1C(=O)c1ccccc1C2=O)C(=O)OC(C)(C)C
82 | 216 to 218 | COCC(O)c1nc2c(C(F)(F)F)cccc2c(O)c1C(=O)Nc1nccs1 (stereo unspecified)
83 | 55 to 67 | CC(C)CCCC(C)C1CCC2C3CCC4CC(NC(=O)C(COCc5ccccc5)NC(=O)OC(C)(C)C)CCC4(C)C3CCC12C (stereo unspecified)
84 | 69 | CCCCCc1ccc(CCc2ccc(-c3ccc([C@H]4CC[C@H](CCCCC)CC4)cc3F)cc2)cc1
85 | 156 to 157 | COC(=O)CCc1oc(=O)[nH]c1-c1ccc(C(F)(F)F)cc1
86 | 123 to 125 | CCOC(=O)CC(O)CC(O)C=Cc1c(C(C)C)sc(-c2ccccc2)c1-c1ccc(F)cc1 (stereo unspecified)
87 | 132 to 133 | CC(=O)OCC(OC(C)=O)C1OC(OC(C)=O)(C(=O)O)CC(OC(C)=O)C1OC(C)=O (stereo unspecified)
88 | 175 | NCCOc1ccc(O)cc1
89 | 146 | O=C(CCl)Nc1nc(C(Cl)(Cl)Cl)ns1
90 | 219 to 221 | CCOC(=O)c1cc2c(Cl)ncnc2[nH]1
91 | 200 to 202 | O=C(NCc1ccc(Br)cc1)c1cn(N2CCOCC2)c2ccc(CN3CCOCC3)cc2c1=O
92 | 189 | COc1ccc(C(=O)OCCN2CCC(Nc3nc4ccccc4n3Cc3ccc(F)cc3)CC2)cc1
93 | 205 to 208 | O=C(O)Cc1cn2ccccc2n1
94 | 192 to 193 | O=S(=O)(NC1CCCCC1)c1ccc(Cn2cnc3ccccc32)cc1
95 | > 300 | OCc1cnc2c(Cl)cccc2c1O
96 | 78 to 80 | Cn1ncc(NCCN(CCOc2cccc3c2OCCO3)Cc2ccccc2)c(Cl)c1=O
97 | 143 to 144 | CN1CCN(c2ncnc3oc(-c4ccccc4)c(-c4ccc(F)cc4)c23)CC1
98 | 190 to 191 | COC(CNC(=O)N(N=Cc1ccccc1)c1cc(Cl)c(C(C#N)c2ccc(Cl)cc2)c(Cl)c1)OC (stereo unspecified)

Row | Structure (SMILES) | melting point [°C]
99 | CC(C)S(=O)(=O)c1ccc2c(c1)nc(CC(C)(C)C)n2CCN1CCOCC1 | 151
100 | CCCc1c(C(=O)C(C)C)c2ccc(C(=O)O)cc2n1Cc1ccccc1Br | 193 to 194
101 | CN(C)C(=N[N+](=O)[O-])N(C#N)Cc1cnc(Cl)s1 | 152 to 155
